Results as given in ChEMBL document CHEMBL3132815, “Design, synthesis and activities of 4/5-acyl-2-aminoimidazolyl analogues of oroidin for biofilm inhibition” (Medchemcomm, 2013).
In brackets after ≈: the same amount, converted by molar mass.

How the values were obtained:
Pseudomonas aeruginosa [1] = test: Antibiofilm activity against Pseudomonas aeruginosa PAO1 assessed as inhibition of biofilm formation; assay type: functional, organism-based
Staphylococcus aureus [2] = test: Antibacterial activity against Staphylococcus aureus ATCC 35556 assessed as planktonic growth at 50 ug/ml; assay type: organism-based
Staphylococcus aureus [3] = test: Antibiofilm activity against methicillin-resistant Staphylococcus aureus 1094 assessed as inhibition of biofilm formation; assay type: functional
Staphylococcus aureus [4] = test: Antibiofilm activity against methicillin-resistant Staphylococcus aureus 1094 assessed as inhibition of biofilm formation at 50 ug/ml; assay type: functional
Staphylococcus aureus [5] = test: Antibacterial activity against Staphylococcus aureus ATCC 35556 assessed as planktonic growth; assay type: organism-based
[6] = tested on: Staphylococcus epidermidis; test: Antibiofilm activity against Staphylococcus epidermidis GTC 18972 assessed as inhibition of biofilm formation at 50 ug/ml; assay type: functional
[7] = tested on: Staphylococcus epidermidis; test: Antibiofilm activity against Staphylococcus epidermidis 1457 assessed as inhibition of biofilm formation at 50 ug/ml; assay type: functional
Staphylococcus aureus [8] = test: Antibiofilm activity against Staphylococcus aureus ATCC 35556 assessed as inhibition of biofilm formation; assay type: functional
[9] = Cytotoxicity against human HeLa cells; assay type: cell-based
Pseudomonas aeruginosa [10] = test: Antibacterial activity against Pseudomonas aeruginosa PAO1 assessed as planktonic growth at 50 ug/ml; assay type: organism-based
[11] = tested on: Staphylococcus epidermidis; test: Antibacterial activity against Staphylococcus epidermidis 1457 assessed as planktonic growth at 50 ug/ml; assay type: organism-based
Pseudomonas aeruginosa [12] = test: Antibacterial activity against Pseudomonas aeruginosa PAO1 assessed as planktonic growth; assay type: organism-based
Pseudomonas aeruginosa [13] = test: Antibiofilm activity against Pseudomonas aeruginosa PAO1 assessed as inhibition of biofilm formation at 50 ug/ml; assay type: functional
[14] = tested on: Staphylococcus epidermidis; test: Antibacterial activity against Staphylococcus epidermidis GTC 18972 assessed as planktonic growth; assay type: organism-based
[15] = tested on: Staphylococcus epidermidis; test: Antibiofilm activity against Staphylococcus epidermidis GTC 18972 assessed as inhibition of biofilm formation; assay type: functional
Staphylococcus aureus [16] = test: Antibiofilm activity against Staphylococcus aureus ATCC 35556 assessed as inhibition of biofilm formation at 50 ug/ml; assay type: functional
[17] = tested on: Staphylococcus epidermidis; test: Antibiofilm activity against Staphylococcus epidermidis 1457 assessed as inhibition of biofilm formation; assay type: functional
Staphylococcus aureus [18] = test: Antibacterial activity against methicillin-resistant Staphylococcus aureus assessed as planktonic growth at 50 ug/ml; assay type: organism-based; conditions: in vitro
Staphylococcus aureus [19] = test: Antibacterial activity against methicillin-resistant Staphylococcus aureus 1094 assessed as planktonic growth at 50 ug/ml; assay type: organism-based
[20] = tested on: Staphylococcus epidermidis; test: Antibacterial activity against Staphylococcus epidermidis GTC 18972 assessed as planktonic growth at 50 ug/ml; assay type: organism-based
Staphylococcus aureus [21] = test: Antibiofilm activity against methicillin-resistant Staphylococcus aureus assessed as inhibition of biofilm formation at 50 ug/ml; assay type: functional
[22] = tested on: Staphylococcus epidermidis; test: Antibacterial activity against Staphylococcus epidermidis 1457 assessed as planktonic growth; assay type: organism-based
Staphylococcus aureus [23] = test: Antibiofilm activity against Staphylococcus aureus assessed as inhibition of biofilm formation; assay type: functional, organism-based

For `Nc1ncc(C(=O)CCNC(=O)c2ccc[nH]2)[nH]1`, the MBIC (Pseudomonas aeruginosa [1]) was 50 µg/mL, the Activity (Staphylococcus aureus [2]) was 79.94% and the MBIC (Staphylococcus aureus [3]) was 12.5 µg/mL. The inhibition at 50 µg/mL (Staphylococcus aureus [4]) was 86.2%, the MIC (Staphylococcus aureus [5]) was 25 µg/mL (≈ 101 µM) and the inhibition at 50 µg/mL [6] was 97.8%. The inhibition at 50 µg/mL [7] was 98%, the MBIC (Staphylococcus aureus [8]) was 6.25 µg/mL and the CC50 [9] was 101 µg/mL (≈ 410 µM). For the same molecule, the Activity (Pseudomonas aeruginosa [10]) was 86.17%, the Activity [11] was 81.58% and the MIC (Pseudomonas aeruginosa [12]) was 50 µg/mL (≈ 202 µM). The inhibition at 50 µg/mL (Pseudomonas aeruginosa [13]) was 92%, the MIC [14] was 12.5 µg/mL (≈ 50.6 µM) and the MBIC [15] was 6.25 µg/mL. The inhibition at 50 µg/mL (Staphylococcus aureus [16]) was 98.1%, the MBIC [17] was 6.25 µg/mL and the Activity (Staphylococcus aureus [18]) was 85.37%. For the same molecule, the Activity (Staphylococcus aureus [19]) was 86.98%, the Activity [20] was 81.99% and the inhibition at 50 µg/mL (Staphylococcus aureus [21]) was 88.4%. The MIC [22] was 12.5 µg/mL (≈ 50.6 µM).

Molecule `Nc1ncc(/C=C/CNC(=O)c2cc(Br)c(Br)[nH]2)[nH]1` [OROIDIN] has an IC50 (Staphylococcus aureus [23]) of 166 µM.

In the case of `Nc1ncc(C(=O)CCNC(=O)c2cc(Br)c[nH]2)[nH]1`, the MBIC (Pseudomonas aeruginosa [1]) is reported as “>=100 ug ml-1”, the Activity (Staphylococcus aureus [2]) is reported as 81.24% and the inhibition at 50 µg/mL (Staphylococcus aureus [4]) is reported as 85.5%. It also gave an MIC (Staphylococcus aureus [5]) of 50 µg/mL (≈ 153 µM), an inhibition at 50 µg/mL [6] of 97.8% and an inhibition at 50 µg/mL [7] of 98%. For the same molecule, the MBIC (Staphylococcus aureus [8]) was 50 µg/mL, the CC50 [9] was 86.4 µg/mL (≈ 265 µM) and the Activity (Pseudomonas aeruginosa [10]) was 32.69%. The Activity [11] was 85.98%, the MIC (Pseudomonas aeruginosa [12]) was “>= 100 ug ml-1” and the inhibition at 50 µg/mL (Pseudomonas aeruginosa [13]) was 29.6%. The MIC [14] was 25 µg/mL (≈ 76.7 µM), the MBIC [15] was 25 µg/mL and the inhibition at 50 µg/mL (Staphylococcus aureus [16]) was 98%. It also gave an MBIC [17] of 25 µg/mL, an Activity (Staphylococcus aureus [18]) of 88.41% and an Activity (Staphylococcus aureus [19]) of 88.88%. It also gave an Activity [20] of 86.77%, an inhibition at 50 µg/mL (Staphylococcus aureus [21]) of 88.8% and an MIC [22] of 50 µg/mL (≈ 153 µM).
